Measurements as given in patent US20230000773A1, “NOVEL HEADGROUP LIPID COMPOUNDS AND COMPOSITIONS FOR INTRACELLULAR DELIVERY OF THERAPEUTIC AGENTS” (ModernaTX, Inc., priority 2019, published 2023).
Counter-ions that a name gives are not always drawn.

What was measured:
[1] = Heparin-sepharose binding of nanoparticles
hEPO mRNA = assay: hEPO expression in CD1-mice after intravenous administration of nanoparticles; format: in vivo; conditions: 6 h after intravenous administration, mRNA dose 0.5 mg/kg, N:P 3.4, compound:DSPC:cholesterol:PEG 2 50:10:38:2
Experimental: The expression of hEPO mRNA in CD1-mice was measured 6 h after intravenous administration of nanoparticles comprising a compound of the disclosure, DSPC, cholesterol, and PEG 2 in a ratio of 50:10:38:2. […] Each composition was dosed to 8 animals at an mRNA dose of 0.5 mg/kg.

[2] = Apparent LNP pKa by 2-(p-toluidino)-6-napthalene sulfonic acid (TNS) assay; format: physicochemical; conditions: pH at half of maximum fluorescence
[3] = Encapsulation efficiency (% EE), ribogreen; format: physicochemical; conditions: nanoparticles, compound:DSPC:cholesterol:PEG 2 50:10:38:2 mol %
From the text: The efficiency of encapsulation of a therapeutic and/or prophylactic describes the amount of therapeutic and/or prophylactic that is encapsulated or otherwise associated with a lipid nanoparticle (e.g., an empty LNP or a loaded LNP) after preparation, relative to the initial amount provided. The encapsulation efficiency is desirably high (e.g., close to 100%). The encapsulation efficiency may be measured, for example, by comparing the amount of therapeutic and/or prophylactic in a solution containing the lipid nanoparticle (e.g., an empty LNP or a loaded LNP) before and after breaking up the lipid nanoparticle (e.g., an empty LNP or a loaded LNP) with one or more organic solvents or detergents. Fluorescence may be used to measure the amount of free therapeutic and/or prophylactic (e.g., RNA) in a solution.
(§1) Nanoparticle compositions including a therapeutic and/or prophylactic can be optimized according to the selection of a compound according to Formula (I), (I-1), (A), (A-1), (A-1a), or (A-1b), the selection of additional lipids, the amount of each lipid in the lipid component, and the wt:wt ratio of the lipid component to the therapeutic and/or prophylactic. Nanoparticle compositions including DSPC as a phospholipid, cholesterol as a structural lipid, PEG 2 as a PEG lipid, and a compound according to Formula (I), (I-1), (A), (A-1), (A-1a), or (A-1b) were prepared. The ratios of the lipids were 50:10:38:2 mol % for the lipid according to Formula (I), (I-1), (A), (A-1), (A-1a), or (A-1b):DSPC:cholesterol:PEG 2. […]

[4] = Size and polydispersity index of nanoparticles comprising compounds of the disclosure; format: physicochemical; conditions: compound:DSPC:cholesterol:PEG 2 50:10:38:2 mol %
From the text: Lipid nanoparticles (e.g., empty LNPs or loaded LNPs) may be characterized by a variety of methods. For example, microscopy (e.g., transmission electron microscopy or scanning electron microscopy) may be used to examine the morphology and size distribution of a nanoparticle composition. Dynamic light scattering or potentiometry (e.g., potentiometric titrations) may be used to measure zeta potentials. Dynamic light scattering may also be utilized to determine particle sizes. Instruments such as the Zetasizer Nano ZS (Malvern Instruments Ltd, Malvern, Worcestershire, UK) may also be used to measure multiple characteristics of a nanoparticle composition, such as particle size, polydispersity index, and zeta potential.
as §1

[5] = Surface hydrophobicity by Generalized Polarization by Laurdan (GPL); format: physicochemical; conditions: normalized Generalized Polarization by Laurdan; higher N-GP = less polar surface
From the text: Nanoparticle compositions including a therapeutic and/or prophylactic can be optimized according to the selection of a compound according to Formula (I), (I-1), (A), (A-1), (A-1a), or (A-1b), the selection of additional lipids, the amount of each lipid in the lipid component, and the wt:wt ratio of the lipid component to the therapeutic and/or prophylactic. Nanoparticle compositions including DSPC as a phospholipid, cholesterol as a structural lipid, PEG 2 as a PEG lipid, and a compound according to Formula (I), (I-1), (A), (A-1), (A-1a), or (A-1b) were prepared. The ratios of the lipids were 50:10:38:2 mol % for the lipid according to Formula (I), (I-1), (A), (A-1), (A-1a), or (A-1b):DSPC:cholesterol:PEG 2.
Laurdan, a fluorescent aminonaphthalene ketone lipid, was post-inserted into the nanoparticle surface and the fluorescence spectrum of Laurdan was collected to determine the normalized Generalized Polarization (N-GP). Higher N-GP indicates a less polar surface.

Relative % Area Bound by LNP [1] [%] | LogIC50 (pKa) [2] | % EE (ribogreen) [3] [%] | PDI [4] | Size (nm) [4] [nm] | Average N-GP [5] | SMILES | Avg. [hEPO] mIU/mL (hEPO mRNA) [mIU/mL]
0 | 6.00 | 97.9 | 0.088 | 68.4 |  | CCCCCCCCC(CC)OC(=O)CCCCCCCN(CCCCCCCC(=O)OC(CCCCCCCC)CCCCCCCC)CCCNc1c(Cl)c(=O)n(C)n(C)c1=O (centres unmarked) [Compound 6, Heptadecan-9-yl 8-((3-((5-chloro-1,2-dimethyl-3,6-dioxo-1,2,3,6-tetrahydropyridazin-4-yl)amino)propyl)(8-oxo-8-(undecan-3-yloxy)octyl)amino)octanoate] | 8.12E+04
1.43 | 6.13 | 85.0 | 0.139 | 78.9 |  | CCCCCCCCC(CC)OC(=O)CCCCCCCN(CCCCCCCC(=O)OC(CCCCCCCC)CCCCCCCC)CCCNC(=O)C(=O)NC (centres unmarked) [Compound 12, Heptadecan-9-yl 8-((3-(2-(methylamino)-2-oxoacetamido)propyl)(8-oxo-8-(undecan-3-yloxy)octyl)amino)octanoate] | 2.29E+05
0 | 6.41 | −11.2 | 0.196 | 54.3 |  | CCCCCCCCC(CC)OC(=O)CCCCCCCN(CCCCCCCC(=O)OC(CCCCCCCC)CCCCCCCC)CCCn1ccc2cc([N+](=O)[O-])ccc21 (centres unmarked) [Compound 48, Heptadecan-9-yl 8-((3-(5-nitro-1H-indol-1-yl)propyl)(8-oxo-8-(undecan-3-yloxy)octyl)amino)octanoate] | 0
37.96 | 7.23 | 98.4 | 0.178 | 80.8 |  | CCCCCCCCC(CC)OC(=O)CCCCCCCN(CCCCCCCC(=O)OC(CCCCCCCC)CCCCCCCC)CCCNC(=O)CC(=O)NC (centres unmarked) [Compound 17, Heptadecan-9-yl 8-({3-[2-(methylcarbamoyl)acetamido]propyl}[8-oxo-8-(undecan-3-yloxy)octyl]amino)octanoate] | 7.95E+04
69.04 | 7.20 | 98.9 | 0.167 | 91.2 |  | CCCCCCCCC(CC)OC(=O)CCCCCCCN(CCCCCCCC(=O)OC(CCCCCCCC)CCCCCCCC)CCCNC(C(N)=O)C(N)=O (centres unmarked) [Compound 14, Heptadecan-9-yl 8-((3-((1,3-diamino-1,3-dioxopropan-2-yl)amino)propyl)(8-oxo-8-(undecan-3-yloxy)octyl)amino)octanoate] | 6.20E+04
10.99 | 6.75 |  |  |  | 0.703 | CCCCCCCCC(CC)OC(=O)CCCCCCCN(CCCCCCCC(=O)OC(CCCCCCCC)CCCCCCCC)CCCNS(=O)(=O)CC(=O)NC (centres unmarked) [Compound 80, Heptadecan-9-yl 8-((3-((2-(methylamino)-2-oxoethyl)sulfonamido)propyl)(8-oxo-8-(undecan-3-yloxy)octyl)amino)octanoate] | 7.69E+04
0 | 6.61 |  |  |  | 0.747 | CCCCCCCCC(CC)OC(=O)CCCCCCCN(CCCCCCCC(=O)OC(CCCCCCCC)CCCCCCCC)CCCNS(=O)(=O)c1ncccn1 (centres unmarked) [Compound 73, Heptadecan-9-yl 8-((8-oxo-8-(undecan-3-yloxy)octyl)(3-(pyrimidine-2-sulfonamido)propyl)amino)octanoate] | 4.64E+05
0 | 6.09 | 98.1 | 0.18 | 69.8 |  | CCCCCCCCC(CC)OC(=O)CCCCCCCN(CCCCCCCC(=O)OC(CCCCCCCC)CCCCCCCC)CCCNc1noc(N)n1 (centres unmarked) [Compound 50, Heptadecan-9-yl 8-((3-((5-amino-1,2,4-oxadiazol-3-yl)amino)propyl)(8-oxo-8-(undecan-3-yloxy)octyl)amino)octanoate] | 1.91E+05
0 | 6.80 |  |  |  | 0.824 | CCCCCCCCC(CC)OC(=O)CCCCCCCN(CCCCCCCC(=O)OC(CCCCCCCC)CCCCCCCC)CCCNC1=NS(=O)(=O)CCN1 (centres unmarked) [Compound 77, Heptadecan-9-yl 8-((3-((1,1-dioxido-5,6-dihydro-4H-1,2,4-thiadiazin-3-yl)amino)propyl)(8-oxo-8-(undecan-3-yloxy)octyl)amino)octanoate] | 7.75E+04
1.97 | 6.50 |  |  |  | 0.831 | CCCCCCCCC(CC)OC(=O)CCCCCCCN(CCCCCCCC(=O)OC(CCCCCCCC)CCCCCCCC)CCCNS(=O)(=O)c1ccnn1COC (centres unmarked) [Compound 75, Heptadecan-9-yl 8-((3-((1-(methoxymethyl)-1H-pyrazole)-5-sulfonamido)propyl)(8-oxo-8-(undecan-3-yloxy)octyl)amino)octanoate] | 6.24E+05
 |  | 98.2 | 0.22 | 53.7 |  | CCCCCCCCC(CC)OC(=O)CCCCCCCN(CCCCCCCC(=O)OC(CCCCCCCC)CCCCCCCC)CCCN/C=C1/NC(=O)NC1=O (centres unmarked) [Compound 52] | 
1.67 | 6.25 |  |  |  | 0.920 | CCCCCCCCC(CC)OC(=O)CCCCCCCN(CCCCCCCC(=O)OC(CCCCCCCC)CCCCCCCC)CCCNc1nnc(N)s1 (centres unmarked) [Compound 82, Heptadecan-9-yl 8-((3-((5-amino-1,3,4-thiadiazol-2-yl)amino)propyl)(8-oxo-8-(undecan-3-yloxy)octyl)amino)octanoate Trifluoroacetate Salt] | 2.18E+05
0 | 6.23 |  |  |  | 0.683 | CCCCCCCCC(CC)OC(=O)CCCCCCCN(CCCCCCCC(=O)OC(CCCCCCCC)CCCCCCCC)CCCNC1=NC(=O)NC1 (centres unmarked) [Compound 79, Heptadecan-9-yl 8-((3-((2-oxo-2,5-dihydro-1H-imidazol-4-yl)amino)propyl)(8-oxo-8-(undecan-3-yloxy)octyl)amino)octanoate] | 4.04E+04
6.14 | 6.42 |  |  |  | 0.938 | CCCCCCCCC(CC)OC(=O)CCCCCCCN(CCCCCCCC(=O)OC(CCCCCCCC)CCCCCCCC)CCCNS(=O)(=O)Cc1ccccc1 (centres unmarked) [Compound 74, Heptadecan-9-yl 8-((8-oxo-8-(undecan-3-yloxy)octyl)(3-((phenylmethyl)sulfonamido)propyl)amino)octanoate] | 1.21E+05
2.25 | 6.48 |  |  |  | 0.921 | CCCCCCCCC(CC)OC(=O)CCCCCCCN(CCCCCCCC(=O)OC(CCCCCCCC)CCCCCCCC)CCCN/C=C1\NC(=O)NC1=O (mixture of isomers) [Compound 51/52, Heptadecan-9-yl (E/Z)-8-((3-(((2,5-dioxoimidazolidin-4-ylidene)methyl)amino)propyl)(8-oxo-8-(undecan-3-yloxy)octyl)amino)octanoate] | 1.86E+05
